Key:
Test in all cases: Pre-emergent herbicidal activity (Table A)
Type in all cases: in vivo
Barnyardgrass = settings: Echinochloa crus-galli, pre-emergence, Bygr, 11.2 kg/ha, 10-14 days, read-out: herbicidal rating (% inhibition)
Summary of the method: (§1)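 Seeds or perennial propagules set on compacted topsoil, then covered with soil mixed with a known amount of test compound applied in acetone or water carrier. Ratings assigned on a scale based on percent inhibition of each species.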

Canada thistle = settings: Cirsium arvense, pre-emergence, Cath, 11.2 kg/ha, 10-14 days, read-out: herbicidal rating (% inhibition)
Summary of the method: as §1

Cocklebur = settings: Xanthium strumarium, pre-emergence, Cobu, 11.2 kg/ha, 10-14 days, read-out: herbicidal rating (% inhibition)
Summary of the method: as §1

Common Lambsquarters = settings: Chenopodium album, pre-emergence, Colq, 11.2 kg/ha, 10-14 days, read-out: herbicidal rating (% inhibition)
Summary of the method: as §1

Downy Brome = settings: Bromus tectorum, pre-emergence, Dobr, 11.2 kg/ha, 10-14 days, read-out: herbicidal rating (% inhibition)
Summary of the method: as §1

Morningglory = settings: Ipomoea, pre-emergence, Mogl, 11.2 kg/ha, 10-14 days, read-out: herbicidal rating (% inhibition)
Summary of the method: as §1

Pennsylvania Smartweed = settings: pre-emergence, Pesw, 11.2 kg/ha, 10-14 days, read-out: herbicidal rating (% inhibition)
Summary of the method: as §1

Quackgrass = settings: pre-emergence, Rhqg, 11.2 kg/ha, 10-14 days, read-out: herbicidal rating (% inhibition)
Summary of the method: as §1

Rhizome Johnsongrass = settings: Sorghum halepense, pre-emergence, Rhjg, 11.2 kg/ha, 10-14 days, read-out: herbicidal rating (% inhibition)
Summary of the method: as §1

Velvetleaf = settings: Abutilon theophrasti, pre-emergence, Vele, 11.2 kg/ha, 10-14 days, read-out: herbicidal rating (% inhibition)
Summary of the method: as §1

Yellow Nutsedge = settings: Cyperus, pre-emergence, Yens, 11.2 kg/ha, 10-14 days, read-out: herbicidal rating (% inhibition)
Summary of the method: as §1

COC(=O)c1c(OC)nc(C(F)(F)F)c(C(=O)n2cccn2)c1CC(C)C [Compound 42, 3-pyridinecarboxylic acid, 2-methoxy-4-(2-methylpropyl)-5-(1H-pyrazo1-1-ylcarbonyl)-6-(trifluoromethyl)-, methyl ester]
inhibition at 11200 g/ha (Barnyardgrass): 75 to 100% | inhibition at 11200 g/ha (Canada thistle): 75 to 100% | inhibition at 11200 g/ha (Cocklebur): 75 to 100% | inhibition at 11200 g/ha (Common Lambsquarters): 75 to 100% | inhibition at 11200 g/ha (Downy Brome): 75 to 100% | inhibition at 11200 g/ha (Morningglory): 75 to 100% | inhibition at 11200 g/ha (Pennsylvania Smartweed): 75 to 100% | inhibition at 11200 g/ha (Quackgrass): 75 to 100% | inhibition at 11200 g/ha (Rhizome Johnsongrass): 50 to 74% | inhibition at 11200 g/ha (Velvetleaf): 75 to 100% | inhibition at 11200 g/ha (Yellow Nutsedge): 50 to 74%

CCOC(=O)c1c(OC)nc(C(F)F)c(C(=O)OC)c1CC(C)C [Compound 26, 3,5-pyridinedicarboxylic acid, 2-(difluoromethyl)-6-methoxy-4-(2-methylpropyl)-, 5-ethyl 3-methyl ester]
inhibition at 11200 g/ha (Barnyardgrass): 75 to 100% | inhibition at 11200 g/ha (Canada thistle): 75 to 100% | inhibition at 11200 g/ha (Cocklebur): 0 to 24% | inhibition at 11200 g/ha (Common Lambsquarters): 75 to 100% | inhibition at 11200 g/ha (Downy Brome): 75 to 100% | inhibition at 11200 g/ha (Morningglory): 75 to 100% | inhibition at 11200 g/ha (Pennsylvania Smartweed): 75 to 100% | inhibition at 11200 g/ha (Quackgrass): 75 to 100% | inhibition at 11200 g/ha (Rhizome Johnsongrass): 75 to 100% | inhibition at 11200 g/ha (Velvetleaf): 75 to 100% | inhibition at 11200 g/ha (Yellow Nutsedge): 0 to 24%

CCOc1nc(C(F)(F)F)c(C(=O)n2cccn2)c(CC(C)C)c1C(=O)OC [Compound 49, 3-pyridinecarboxylic acid, 2-ethoxy-4-(2-methylpropyl)-5-(1H-pyrazo1-1-ylcarbonyl)-6-(trifluoromethyl)-, methyl ester]
inhibition at 11200 g/ha (Barnyardgrass): 75 to 100% | inhibition at 11200 g/ha (Canada thistle): 75 to 100% | inhibition at 11200 g/ha (Cocklebur): 25 to 49% | inhibition at 11200 g/ha (Common Lambsquarters): 75 to 100% | inhibition at 11200 g/ha (Downy Brome): 75 to 100% | inhibition at 11200 g/ha (Morningglory): 75 to 100% | inhibition at 11200 g/ha (Pennsylvania Smartweed): 75 to 100% | inhibition at 11200 g/ha (Quackgrass): 75 to 100% | inhibition at 11200 g/ha (Rhizome Johnsongrass): 50 to 74% | inhibition at 11200 g/ha (Velvetleaf): 75 to 100% | inhibition at 11200 g/ha (Yellow Nutsedge): 75 to 100%

COC(=O)c1c(OC)nc(C(F)(F)F)c(C(=O)N2CCC2)c1CC(C)C [Compound 68, 3-pyridinecarboxylic acid, 5-(1-azetidinylcarbonyl)-2-methoxy-4-(2-methylpropyl)-6-(trifluoromethyl)-, methyl ester]
inhibition at 11200 g/ha (Barnyardgrass): 75 to 100% | inhibition at 11200 g/ha (Canada thistle): 25 to 49% | inhibition at 11200 g/ha (Cocklebur): 0 to 24% | inhibition at 11200 g/ha (Common Lambsquarters): 75 to 100% | inhibition at 11200 g/ha (Downy Brome): 75 to 100% | inhibition at 11200 g/ha (Morningglory): 50 to 74% | inhibition at 11200 g/ha (Pennsylvania Smartweed): 25 to 49% | inhibition at 11200 g/ha (Quackgrass): 75 to 100% | inhibition at 11200 g/ha (Rhizome Johnsongrass): 25 to 49% | inhibition at 11200 g/ha (Velvetleaf): 0 to 24% | inhibition at 11200 g/ha (Yellow Nutsedge): 0 to 24%

COC(=O)c1c(OC)nc(C(F)(F)F)c(C2=NCCO2)c1CC(C)C [Compound 43, 3-pyridinecarboxylic acid, 5-(4,5-dihydro-2-oxazolyl)-2-methoxy-4-(2-methylpropyl)-6-(trifluoromethyl)-, methyl ester]
inhibition at 11200 g/ha (Barnyardgrass): 75 to 100% | inhibition at 11200 g/ha (Canada thistle): 75 to 100% | inhibition at 11200 g/ha (Cocklebur): 50 to 74% | inhibition at 11200 g/ha (Common Lambsquarters): 75 to 100% | inhibition at 11200 g/ha (Downy Brome): 75 to 100% | inhibition at 11200 g/ha (Morningglory): 75 to 100% | inhibition at 11200 g/ha (Pennsylvania Smartweed): 75 to 100% | inhibition at 11200 g/ha (Quackgrass): 75 to 100% | inhibition at 11200 g/ha (Rhizome Johnsongrass): 75 to 100% | inhibition at 11200 g/ha (Velvetleaf): 75 to 100% | inhibition at 11200 g/ha (Yellow Nutsedge): 75 to 100%

COC(=O)c1c(C(F)(F)F)nc(OC)c(C(=O)n2cccn2)c1CC(C)C [Compound 24, 3-pyridinecarboxylic acid, 6-methoxy-4-(2-methylpropyl)-5-(1H-pyrazo1-1-ylcarbonyl)-2-(trifluoromethyl)-, methyl ester, hydrate (1:0.3)]
inhibition at 11200 g/ha (Barnyardgrass): 75 to 100% | inhibition at 11200 g/ha (Canada thistle): 25 to 49% | inhibition at 11200 g/ha (Cocklebur): 0 to 24% | inhibition at 11200 g/ha (Common Lambsquarters): 75 to 100% | inhibition at 11200 g/ha (Downy Brome): 75 to 100% | inhibition at 11200 g/ha (Morningglory): 75 to 100% | inhibition at 11200 g/ha (Pennsylvania Smartweed): 75 to 100% | inhibition at 11200 g/ha (Quackgrass): 75 to 100% | inhibition at 11200 g/ha (Rhizome Johnsongrass): 75 to 100% | inhibition at 11200 g/ha (Velvetleaf): 75 to 100% | inhibition at 11200 g/ha (Yellow Nutsedge): 0 to 24%

COC(=O)c1c(OC)nc(C(F)(F)F)c(-n2cccc2)c1CC(C)C [Compound 15, 3-pyridinecarboxylic acid, 2-methoxy-4-(2-methylpropyl)-5-(1H-pyrro1-1-yl)-6-(trifluoromethyl)-, methyl ester]
inhibition at 11200 g/ha (Barnyardgrass): 75 to 100% | inhibition at 11200 g/ha (Canada thistle): 75 to 100% | inhibition at 11200 g/ha (Cocklebur): 0 to 24% | inhibition at 11200 g/ha (Common Lambsquarters): 75 to 100% | inhibition at 11200 g/ha (Downy Brome): 75 to 100% | inhibition at 11200 g/ha (Morningglory): 75 to 100% | inhibition at 11200 g/ha (Pennsylvania Smartweed): 75 to 100% | inhibition at 11200 g/ha (Quackgrass): 75 to 100% | inhibition at 11200 g/ha (Rhizome Johnsongrass): 75 to 100% | inhibition at 11200 g/ha (Velvetleaf): 75 to 100% | inhibition at 11200 g/ha (Yellow Nutsedge): 25 to 49%

Reference: patent US5391540A, “Substituted pyridine compounds” (Rohm and Haas Company, priority 1993, dated 1995)
